Assay results: PubChem BioAssay (NCI)
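Growth conditions: 96-well plates. Treatment: test compound, 48 hours, 5 concentrations. Analysis: linear interpolation between bracketing concentrations; unreached endpoints set to highest concentration. Here, GI50 denotes the concentration required for 50% inhibition of growth. TGI is the concentration that stops growth completely.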

Columns and labels:
Assay in all cases: growth of human tumour cells (NCI), 48 h
HS 578T breast = system: HS 578T breast
COLO 205 colon = system: COLO 205 colon
SK-MEL-28 melanoma = system: SK-MEL-28 melanoma
NCI-H460 lung = system: NCI-H460 lung
UACC-62 melanoma = system: UACC-62 melanoma
CAKI-1 renal = system: CAKI-1 renal
NCI-H226 lung = system: NCI-H226 lung
HCC-2998 colon = system: HCC-2998 colon
MDA-MB-231 breast = system: MDA-MB-231 breast
SR leukemia = system: SR leukemia

Compound	TGI (HS 578T breast)	TGI (COLO 205 colon)	TGI (SK-MEL-28 melanoma)	TGI (NCI-H460 lung)	TGI (UACC-62 melanoma)	TGI (CAKI-1 renal)	TGI (NCI-H226 lung)	TGI (HCC-2998 colon)	TGI (MDA-MB-231 breast)	TGI (SR leukemia)	GI50 (HS 578T breast)	GI50 (COLO 205 colon)	GI50 (SK-MEL-28 melanoma)	GI50 (NCI-H460 lung)	GI50 (UACC-62 melanoma)	GI50 (CAKI-1 renal)	GI50 (NCI-H226 lung)	GI50 (HCC-2998 colon)	GI50 (MDA-MB-231 breast)	GI50 (SR leukemia)
COC(=O)C1=C(O)C(C(=O)OC)[C@]2(O)[C@H](C(=O)OC)[C@H]1C[C@@H](c1c(Cl)cccc1Cl)[C@H]2C(=O)OC (stereo not given in full)	27.3 µM	4.37 µM	7.55 µM	6.55 µM	5.56 µM	11.3 µM	4.87 µM	3.03 µM	12.9 µM	4.87 µM	–	–	–	–	–	–	–	–	–	–
CC1C2CC(C(S(=O)(=O)N3CCOCC3)/C2=N\O)C1(C)C (stereo not given)	> 100 µM	> 100 µM	> 100 µM	> 100 µM	> 100 µM	> 100 µM	> 100 µM	> 100 µM	> 100 µM	> 100 µM	–	–	–	–	–	–	–	–	–	–
COc1ccc2oc(OC)c(CC=C(C)C)c(=O)c2c1C	> 100 µM	> 100 µM	> 100 µM	> 100 µM	> 100 µM	> 100 µM	> 100 µM	> 100 µM	> 100 µM	> 100 µM	–	–	–	–	–	–	–	–	–	–
COc1ccc2sc(-n3nc4ccccc4c3Nc3nc4ccc(OC)cc4s3)nc2c1	5.61 µM	> 63.9 µM	26.5 µM	> 38.9 µM	10.8 µM	6.89 µM	13.9 µM	5.47 µM	10.9 µM	> 100 µM	–	–	–	–	–	–	–	–	–	–
Fc1ccc2nc3n(c2c1)C(c1c(Cl)cccc1Cl)SC3 (stereo not given)	> 100 µM	> 100 µM	> 100 µM	> 100 µM	> 100 µM	> 100 µM	> 100 µM	> 100 µM	> 100 µM	> 100 µM	–	–	–	–	–	–	–	–	–	–
CCOC(=O)C1OC(C2(C)OC3(OC4(C=CC3O)OC(C(C)C(=O)C(C)C(O)C(C)CC(C)c3c(Cl)cc(C)c(O)c3C(=O)O)C(C)CC4C)C(C)C2OC)CC1O (stereo not given)	11.7 µM	2.08 µM	1.02 µM	0.714 µM	1.25 µM	10.4 µM	1.84 µM	0.264 µM	2.96 µM	4.53 µM	–	–	–	–	–	–	–	–	–	–
Brc1ccc2c([C@H]3CN[C@@H](c4c[nH]c5cc(Br)ccc45)CN3)c[nH]c2c1	25.2 µM	2.91 µM	27.2 µM	4.15 µM	23.2 µM	11.3 µM	20.8 µM	3.02 µM	6.65 µM	6.77 µM	–	–	–	–	–	–	–	–	–	–
O=S(=O)(O)ON=C1c2ccccc2-c2ccccc21	> 100 µM	> 100 µM	> 100 µM	> 100 µM	> 100 µM	> 100 µM	> 100 µM	> 100 µM	> 100 µM	> 100 µM	–	–	–	–	–	–	–	–	–	–
N=C(N)SCc1ccc(Cl)cc1Cl (tested in a mixture with another compound)	45.2 µM	39.6 µM	45.3 µM	24.2 µM	28.3 µM	24.2 µM	40.9 µM	21.5 µM	25 µM	22.8 µM	–	–	–	–	–	–	–	–	–	–
O=C(Cc1nccc2c1[nH]c1ccccc12)OC1C#CCSCC#C/C=C\1 (stereo not given)	> 100 µM	> 100 µM	> 100 µM	> 100 µM	> 100 µM	> 100 µM	> 100 µM	> 100 µM	> 100 µM	> 100 µM	–	–	–	–	–	–	–	–	–	–
O=c1oc2cc(O)ccc2c(O)c1C(c1cccnc1)c1c(O)c2ccc(O)cc2oc1=O	> 100 µM	> 100 µM	> 100 µM	> 100 µM	> 100 µM	> 100 µM	> 100 µM	> 100 µM	> 100 µM	> 100 µM	–	–	–	–	–	–	–	–	–	–
Cc1cc(C)c2c(n1)S(=O)(=O)N(CCCN1CCN(c3cccc(C(F)(F)F)c3)CC1)c1c-2nn(C)c1C	> 100 µM	> 100 µM	> 100 µM	> 100 µM	> 100 µM	> 100 µM	> 100 µM	> 100 µM	> 100 µM	62 µM	–	–	–	–	–	–	–	–	–	–
Cc1cc(Cc2c(F)c(F)c(C(c3cc(C)no3)c3c(F)c(F)c(F)c(F)c3F)c(F)c2F)on1 (stereo not given)	> 100 µM	> 100 µM	> 100 µM	> 100 µM	> 100 µM	> 100 µM	> 100 µM	> 100 µM	> 100 µM	> 100 µM	–	–	–	–	–	–	–	–	–	–
c1csc(-c2cc(-c3cccs3)c(-c3cccs3)s2)c1	> 100 µM	> 100 µM	> 100 µM	> 100 µM	> 100 µM	> 100 µM	> 100 µM	> 100 µM	> 100 µM	> 100 µM	–	–	–	–	–	–	–	–	–	–
Cc1ccc(OC2CC(n3cnc4ncnc(Cl)c43)OC2Oc2ccc(C)cc2)cc1 (stereo not given)	76.9 µM	46.5 µM	> 100 µM	> 100 µM	96.7 µM	5.93 µM	31 µM	24.9 µM	50.2 µM	> 100 µM	–	–	–	–	–	–	–	–	–	–
N#C/C(=C\NC(=S)c1ccncc1)c1nc2ccccc2s1	> 100 µM	> 100 µM	> 100 µM	> 100 µM	> 100 µM	> 100 µM	> 100 µM	> 100 µM	> 100 µM	> 100 µM	–	–	–	–	–	–	–	–	–	–
CCOC(=O)C(C(=S)Nc1ccccc1)c1nn2c(=O)cc(C)nc2s1 (stereo not given)	> 100 µM	39.5 µM	53.4 µM	81.1 µM	66.1 µM	84.7 µM	70 µM	60.6 µM	70 µM	80.9 µM	–	–	–	–	–	–	–	–	–	–

Compound	TGI (HS 578T breast)	TGI (COLO 205 colon)	TGI (SK-MEL-28 melanoma)	TGI (NCI-H460 lung)	TGI (UACC-62 melanoma)	TGI (CAKI-1 renal)	TGI (NCI-H226 lung)	TGI (HCC-2998 colon)	TGI (MDA-MB-231 breast)	TGI (SR leukemia)	GI50 (HS 578T breast)	GI50 (COLO 205 colon)	GI50 (SK-MEL-28 melanoma)	GI50 (NCI-H460 lung)	GI50 (UACC-62 melanoma)	GI50 (CAKI-1 renal)	GI50 (NCI-H226 lung)	GI50 (HCC-2998 colon)	GI50 (MDA-MB-231 breast)	GI50 (SR leukemia)
Cc1noc2nnn(-c3ccc(Cl)cc3)c(=O)c12	> 60.3 µM	11.9 µM	25.5 µM	21.3 µM	17.8 µM	13 µM	9.83 µM	9.7 µM	25.7 µM	3.78 µM	–	–	–	–	–	–	–	–	–	–
CCOC(=O)c1ccc(C(=O)/C(C(C)=O)=C2\CCCN2C)n1C	> 100 µM	> 100 µM	> 100 µM	> 100 µM	> 100 µM	> 100 µM	> 100 µM	> 100 µM	> 100 µM	98.9 µM	–	–	–	–	–	–	–	–	–	–
CSc1ccc(NC(=S)NN(C)C)cc1	> 10 µM	> 10 µM	> 10 µM	> 10 µM	> 10 µM	> 10 µM	> 10 µM	> 10 µM	> 10 µM	> 10 µM	–	–	–	–	–	–	–	–	–	–
CC(=C(C(N)=O)C(N)=O)C1C=C(c2cccs2)CC(c2ccc(Cl)cc2)=C1O (stereo not given)	> 100 µM	> 100 µM	> 100 µM	> 100 µM	> 100 µM	> 100 µM	> 100 µM	> 100 µM	> 100 µM	81.6 µM	–	–	–	–	–	–	–	–	–	–
CCCCN1C(=O)c2c(-c3sccc3N)sc(-c3sccc3N)c2C1=O	83.6 µM	> 46.7 µM	36.7 µM	> 100 µM	> 64.6 µM	> 100 µM	42.7 µM	> 100 µM	97.3 µM	> 23.1 µM	–	–	–	–	–	–	–	–	–	–
O=C1/C(=C/c2ccc(Cl)cc2)N=C(c2ccccc2)N1CCc1cccs1	> 100 µM	39.9 µM	> 100 µM	> 100 µM	63.2 µM	> 100 µM	> 100 µM	> 100 µM	98.7 µM	> 100 µM	20.3 µM	16 µM	62.8 µM	20.1 µM	13.8 µM	20.4 µM	21.2 µM	31.8 µM	13.6 µM	24.2 µM
CC1OC2(CC(OCc3ccccc3)C1OCc1ccccc1)OCCO2 (stereo not given)	> 100 µM	> 100 µM	> 100 µM	> 100 µM	> 100 µM	> 100 µM	> 100 µM	> 100 µM	> 100 µM	> 100 µM	–	–	–	–	–	–	–	–	–	–
COC(=O)/C=C/c1ccc2c(c1)CC1(C2)Cc2cc3c(cc2C1=O)CCC3 (stereo not given)	78.9 µM	> 100 µM	> 100 µM	> 100 µM	> 100 µM	> 100 µM	> 100 µM	> 100 µM	> 100 µM	> 100 µM	–	–	–	–	–	–	–	–	–	–
CCCCCCCCCCCCCC[S+](C)C	3.78 µM	2.97 µM	8.5 µM	6.78 µM	6.78 µM	> 10 µM	5.13 µM	3.49 µM	4.64 µM	2.35 µM	–	–	–	–	–	–	–	–	–	–
Cn1c(-c2ccccc2)cc2c3ccsc3c3ccsc3c21	> 100 µM	> 100 µM	> 100 µM	> 100 µM	> 100 µM	> 100 µM	> 100 µM	> 100 µM	> 100 µM	> 100 µM	–	–	–	–	–	–	–	–	–	–
Nc1nc(Cl)cc(NCCC2(CO)CCC2)n1	> 100 µM	> 100 µM	> 100 µM	> 100 µM	> 100 µM	> 100 µM	> 100 µM	> 100 µM	> 100 µM	> 100 µM	–	–	–	–	–	–	–	–	–	–
COc1ccc(OC)c(CC2CCc3nc(N)nc(N)c3C2)c1 (stereo not given)	> 70.8 µM	29.2 µM	> 92.5 µM	> 46 µM	25.8 µM	> 100 µM	> 49.4 µM	> 49.9 µM	> 100 µM	> 69.8 µM	–	–	–	–	–	–	–	–	–	–
Nc1[nH]c(=S)nc2snnc12	> 100 µM	> 100 µM	> 100 µM	> 100 µM	> 100 µM	> 100 µM	> 100 µM	> 100 µM	> 100 µM	> 100 µM	–	–	–	–	–	–	–	–	–	–
O=C(CCCCCCC(=O)Nc1cccnc1)NO	> 95.3 µM	> 20.5 µM	> 80.3 µM	> 100 µM	18.5 µM	> 100 µM	> 100 µM	54.5 µM	> 100 µM	> 100 µM	–	–	–	–	–	–	–	–	–	–
Cc1cc(C)nc(SC(C)C(=O)N/N=C/c2ccc(OCc3ccccc3)cc2)n1 (stereo not given)	> 100 µM	91.6 µM	> 100 µM	> 100 µM	92.5 µM	> 100 µM	93.5 µM	> 100 µM	65 µM	38.1 µM	–	–	–	–	–	–	–	–	–	–
O=C(/C=C/c1cc(O)c(O)cc1O)OCCc1ccccc1	> 93.9 µM	25.7 µM	39.3 µM	> 100 µM	40.5 µM	78.3 µM	> 100 µM	> 100 µM	38.3 µM	30.6 µM	–	–	–	–	–	–	–	–	–	–
CCOC(=O)Cc1nc2sc(S(N)(=O)=O)nn2c1Br	> 100 µM	> 100 µM	96.2 µM	> 100 µM	36.1 µM	37.2 µM	73 µM	48.1 µM	44.6 µM	> 100 µM	–	–	–	–	–	–	–	–	–	–
